# Measurements published in patent publication US20250144067A1, “PERSONALIZED STARVATION THERAPY FOR CANCER” (Faeth Therapeutics, Inc., priority 2021, published 2025).
# Structures can show the parent of a compound that is named as a salt. Where two headings read alike, the source gives them in different places.
# Key:
# [1] = system: NCI-H292 lung cancer cells; assay: FDA drug screening, complete media vs cholesterol-free media with simvastatin (TABLE 2); format: cell-based, human
# [2] = system: NCI-H292 lung cancer cells; assay: FDA drug screening, complete media vs cholesterol-free media without statin (TABLE 1); format: cell-based, human
# [3] = NCI-H292 cells, FDA drug library screen, cholesterol-free media with simvastatin 0.04 μM
# [4] = NCI-H292 cells, FDA drug library screen, complete media
# [5] = complete media vs cholesterol-free media + simvastatin (0.04 μM), >0 enhanced anti-cancer activity, about 0 neutral, <0 antagonist
# [6] = Complete minus Cholesterol-free, greater than 0 enhanced anti-cancer activity, about 0 neutral, below 0 antagonist
# [7] = NCI-H292 cells, FDA drug library screen, cholesterol-free media without statin
# [8] = NCI-H292 cells, cholesterol-free media with simvastatin 0.04 μM, cell growth value in FDA drug screen
# [9] = NCI-H292 cells, complete media, cell growth value in FDA drug screen
# [10] = complete media minus cholesterol-free media + simvastatin, >0 enhanced anti-cancer activity, about 0 neutral, <0 antagonist
# [11] = Complete minus Cholesterol-free, greater than 0 enhanced anti-cancer activity, about 0 neutral, below 0 antagonists
# [12] = NCI-H292 cells in cholesterol-free media without statin
# [13] = NCI-H292 cells in complete media
# [14] = Complete minus Cholesterol-free, >0 enhanced anti-cancer activity, about 0 neutral, <0 antagonist
# [15] = NCI-H292 cells, cholesterol-free media without statin
# [16] = NCI-H292 cells, cholesterol-free media with simvastatin 0.04 μM, FDA drug library screen (TABLE 2)
# [17] = NCI-H292 cells, complete media, FDA drug library screen (TABLE 2)
# [18] = complete media minus cholesterol-free media + simvastatin (0.04 μM), >0 enhanced anti-cancer activity, about 0 neutral, <0 antagonist
# [19] = NCI-H292 cells, cholesterol-free media without statin, FDA drug library screen
# [20] = NCI-H292 cells, complete media, FDA drug library screen
smiles,measurement,setting,value
CCOC(=O)C(C)(C)Oc1ccc(Cl)cc1 [Clofibrate],Cholesterol-free media + simvastatin (0.04 μM),[1]; [3],1.786
same,Complete Media,[1]; [4],1.654
same,Difference,[1]; [5],−0.13
same,Difference,[2]; [6],−0.12
same,Cholesterol-free,[2]; [7],1.138
same,Complete,[2]; [4],1.018
CC(C)(Oc1ccc(Cl)cc1)C(=O)O [Clofibric acid],Cholesterol-free media + simvastatin (0.04 μM),[1]; [8],1.015
same,Complete Media,[1]; [9],1.071
same,Difference,[1]; [10],0.06
same,Difference,[2]; [6],−0.18
same,Cholesterol-free,[2]; [7],0.9932
same,Complete,[2]; [4],0.8121
CC(C)(C)CC(C)(C)c1ccc(O)c(Cc2ccc(Cl)cc2Cl)c1 [Clofoctol],Cholesterol-free media + simvastatin (0.04 μM),[1]; [3],1.057
same,Complete Media,[1]; [4],1.232
same,Difference,[1]; [10],0.17
same,Difference,[2]; [11],−0.85
same,Cholesterol-free,[2]; [12],1.815
same,Complete,[2]; [13],0.9672
CN(C)CCCN1c2ccccc2CCc2ccc(Cl)cc21 [Clomipramine (hydrochloride)],Cholesterol-free media + simvastatin (0.04 μM),[1]; [8],0.9105
same,Complete Media,[1]; [9],1.028
same,Difference,[1]; [10],0.12
same,Difference,[2]; [11],−0.54
same,Cholesterol-free,[2]; [12],1.47
same,Complete,[2]; [13],0.9281
Clc1cccc(Cl)c1N=C1NCCN1 [Clonidine (hydrochloride)],Cholesterol-free media + simvastatin (0.04 μM),[1]; [3],1.083
same,Complete Media,[1]; [4],0.9532
same,Difference,[1]; [5],−0.13
same,Difference,[2]; [6],−0.12
same,Cholesterol-free,[2]; [7],0.9351
same,Complete,[2]; [4],0.8162
Clc1cccc(Cl)c1N=C1NCCN1 [Clonidine],Cholesterol-free media + simvastatin (0.04 μM),"[1]; NCI-H292 cells, FDA library drug in cholesterol-free media with simvastatin 0.04 μM",1.26
same,Complete Media,"[1]; NCI-H292 cells, FDA library drug in complete media",0.9157
same,Difference,[1]; [5],−0.34
same,Difference,[2]; [11],−0.63
same,Cholesterol-free,[2]; [12],1.46
same,Complete,[2]; [13],0.8249
Clc1ccc(C(OCCN2CCCCC2)c2ccccc2)cc1 (stereo not drawn) [Cloperastine (hydrochloride)],Cholesterol-free media + simvastatin (0.04 μM),[1]; [3],1.648
same,Complete Media,[1]; [4],1.547
same,Difference,[1]; [5],−0.10
same,Difference,[2]; [14],−0.28
same,Cholesterol-free,[2]; [15],1.087
same,Complete,"[2]; NCI-H292 cells, complete media",0.8022
COC(=O)[C@H](c1ccccc1Cl)N1CCc2sccc2C1 [Clopidogrel],Cholesterol-free media + simvastatin (0.04 μM),[1]; [16],1.038
same,Complete Media,[1]; [17],0.969
same,Difference,[1]; [18],−0.07
same,Difference,[2]; [14],−0.02
same,Cholesterol-free,[2]; [19],0.9805
same,Complete,[2]; [20],0.958
CC(C)NCC(O)c1ccccc1Cl (stereo not drawn) [Clorprenaline hydrochloride],Cholesterol-free media + simvastatin (0.04 μM),[1]; [3],0.6832
same,Complete Media,[1]; [4],0.8199
same,Difference,[1]; [10],0.14
same,Cholesterol-free,[2]; [19],0.6182
same,Complete,[2]; [20],1.062
same,Difference,"[2]; complete vs cholesterol-free media, >0 enhanced anti-cancer activity, about 0 neutral, <0 antagonist",0.44
Clc1ccccc1C(c1ccccc1)(c1ccccc1)n1ccnc1 [Clotrimazole],Cholesterol-free media + simvastatin (0.04 μM),[1]; [3],0.4166
same,Complete Media,[1]; [4],0.8582
same,Difference,[1]; [10],0.44
same,Difference,[2]; [11],−0.77
same,Cholesterol-free,[2]; [12],1.485
same,Complete,[2]; [13],0.7188
Cc1onc(-c2ccccc2Cl)c1C(=O)N[C@@H]1C(=O)N2[C@@H]1SC(C)(C)[C@@H]2C(=O)O [Cloxacillin (sodium monohydrate)],Cholesterol-free media + simvastatin (0.04 μM),[1]; [8],1.045
same,Complete Media,[1]; [9],1.18
same,Difference,[1]; [10],0.13
same,Difference,[2]; [14],−0.19
same,Cholesterol-free,[2]; [15],1.114
same,Complete,"[2]; NCI-H292 cells, complete media",0.9266
CN1CCN(C2=Nc3cc(Cl)ccc3Nc3ccccc32)CC1 [Clozapine],Cholesterol-free media + simvastatin (0.04 μM),[1]; [3],0.8452
same,Complete Media,[1]; [4],1.094
same,Difference,[1]; [10],0.25
same,Difference,[2]; [14],−0.23
same,Cholesterol-free,[2]; [15],1.346
same,Complete,"[2]; NCI-H292 cells, complete media",1.114
O=C(c1ccc(F)c(F)c1Nc1ccc(I)cc1F)N1CC(O)([C@@H]2CCCCN2)C1 [Cobimetinib],Cholesterol-free media + simvastatin (0.04 μM),[1]; [16],0.5825
same,Complete Media,[1]; [17],0.5258
same,Difference,[1]; [18],−0.06
same,Difference,[2]; [14],−0.06
same,Cholesterol-free,[2]; [19],0.2958
same,Complete,[2]; [20],0.2361
COc1cc2c(c(OC)c1OC)-c1ccc(OC)c(=O)cc1[C@@H](NC(C)=O)CC2 [Colchicine],Cholesterol-free media + simvastatin (0.04 μM),[1],0.1971
same,Complete Media,[1],0.2205
same,Difference,[1],0.02
same,Cholesterol-free,[2],0.1135
same,Complete,[2],0.07073
same,Difference,[2],−0.04
